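96-well plates; 48 h exposure; 5 concentrations. Endpoints by linear interpolation between flanking doses. Not reached: highest tested concentration assigned. Abbreviation: GI50, concentration required for 50% inhibition of growth.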 Calls of active or inactive are those of the source. Cut-off read from the data, not from the text of the source: active = GI50 up to about 1.1 µM and inactive = higher.
Assays:
Experiment in all cases: inhibition of tumour cell growth, NCI panel, 48 h
[1] = test system: CAKI-1
[2] = test system: COLO 205
[3] = test system: HCC 2998
[4] = test system: HOP-62
[5] = test system: HOP-92
[6] = test system: HT-29
[7] = test system: M14
[8] = test system: NCI-H522
[9] = test system: OVCAR-5
[10] = test system: PC-3
[11] = test system: RPMI-8226
[12] = test system: SF-295
[13] = test system: SN12C
[14] = test system: SR
[15] = test system: TK-10
[16] = test system: U-251
[17] = test system: UACC-257
[18] = test system: CCRF-CEM

Measured: GI50

Nc1nc(SCc2ccccc2)c2ncn(Cc3ccccc3)c2n1
inactive: [1] 30.1 µM | [2] > 100 µM | [3] > 100 µM | [4] > 100 µM | [5] > 85.9 µM | [6] > 81.8 µM | [7] > 100 µM | [8] > 60.4 µM | [9] > 100 µM | [10] > 100 µM | [11] > 75.9 µM | [12] > 100 µM | [13] > 100 µM | [14] > 56.9 µM | [15] > 100 µM | [16] > 100 µM | [17] > 71 µM

Cc1cc(C(=O)CSC(=S)SC(C)(C)C)ccc1Cl
inactive: [1] 34.2 µM | [2] 18.4 µM | [3] 16.7 µM | [4] 17.4 µM | [5] 24.8 µM | [6] 25.1 µM | [7] 16.4 µM | [8] 14.7 µM | [9] 21.9 µM | [10] 29.8 µM | [11] 21.9 µM | [12] 17.7 µM | [13] 18.2 µM | [14] 16.9 µM | [15] 25.2 µM | [16] 15.1 µM | [17] 18.2 µM

O=C(c1ccccc1)c1ccc2[nH]c(-c3c(Cl)c(Cl)c(Cl)c(Cl)c3C(=O)N/N=C/c3ccc(Cl)cc3)nc2c1
inactive: [1] 61.8 µM | [18] 18.3 µM | [2] 28.1 µM | [4] 31.7 µM | [5] 43.6 µM | [6] 35.2 µM | [7] 30.1 µM | [8] 19.5 µM | [9] 64.7 µM | [10] 37 µM | [11] 19.3 µM | [12] 29 µM | [13] 39.2 µM | [14] 28.2 µM | [15] 40.1 µM | [16] 44.1 µM | [17] 43.3 µM

C=C(C(=O)O)[C@@H]1C[C@@H]2O[C@H]1CC(C)=CCC/C(C)=C/CC[C@@]2(C)O
inactive: [1] > 100 µM | [18] > 100 µM | [2] > 100 µM | [3] > 100 µM | [5] 93.5 µM | [7] > 100 µM | [8] > 100 µM | [9] > 100 µM | [10] > 100 µM | [11] > 100 µM | [12] > 100 µM | [13] > 100 µM | [14] > 100 µM | [15] > 100 µM | [16] > 100 µM | [17] > 100 µM

O=C(O)/C=C/c1ccc(Oc2ccccc2C(=O)O)o1
inactive: [1] > 10 µM | [18] > 10 µM | [2] > 10 µM | [3] > 10 µM | [4] > 10 µM | [5] > 10 µM | [6] > 10 µM | [7] > 10 µM | [8] > 10 µM | [10] > 10 µM | [11] > 10 µM | [12] > 10 µM | [13] > 10 µM | [14] > 10 µM | [15] > 10 µM | [16] > 10 µM | [17] > 10 µM

Cc1ccc(N/N=C/C2=CC(C)(C)C(C#N)(C#N)C(O)=C2C#N)cc1
inactive: [1] 31.6 µM | [18] 24.5 µM | [2] 26.9 µM | [3] 37.8 µM | [4] 78.3 µM | [5] 5.89 µM | [6] 37.8 µM | [7] 49.4 µM | [8] > 100 µM | [9] > 100 µM | [10] 7.23 µM | [11] 22.2 µM | [12] 69.3 µM | [13] > 100 µM | [14] 14.3 µM | [15] 99.5 µM | [17] 38.8 µM

CC(C)=CCNc1ncnc2c1ncn2CCC(=O)O
inactive: [18] > 100 µM | [2] > 100 µM | [3] > 100 µM | [4] > 100 µM | [5] > 100 µM | [6] > 100 µM | [7] > 100 µM | [8] > 100 µM | [9] > 100 µM | [10] > 100 µM | [11] > 100 µM | [12] > 100 µM | [13] > 100 µM | [14] > 100 µM | [15] > 100 µM | [16] > 100 µM

COc1ccc(N2C(=O)C(=O)N(c3ccccc3[N+](=O)[O-])C2=S)cc1
inactive: [1] 40 µM | [18] 81.7 µM | [2] 19.4 µM | [3] 36.1 µM | [4] 50 µM | [5] 19.6 µM | [6] 33.8 µM | [8] 10.7 µM | [9] 22.4 µM | [10] 40.5 µM | [11] 30.5 µM | [12] 35.1 µM | [13] 37.4 µM | [14] 47.3 µM | [15] 21.7 µM | [16] 37.8 µM | [17] 17.1 µM

CCOC(=O)c1cc(C)nc2c1c(=O)n(-c1ccccc1)c(=O)n2CCCCN1CCN(c2ccccc2)CC1
inactive: [1] 1.53 µM | [2] 60 µM | [3] 41.1 µM | [4] > 100 µM | [5] > 100 µM | [6] 36.6 µM | [7] 38.9 µM | [8] 87.1 µM | [9] > 100 µM | [10] 47.9 µM | [11] 15.7 µM | [12] > 100 µM | [13] 49.9 µM | [14] 19 µM | [15] > 100 µM | [16] > 100 µM | [17] 27.8 µM

O=C1CSc2nnc(CCCCCCCCc3nnc4n3NC(=O)CS4)n2N1
inactive: [1] > 100 µM | [18] 15.3 µM | [2] > 100 µM | [3] > 100 µM | [4] 46 µM | [5] 82 µM | [6] 23.1 µM | [7] > 100 µM | [8] 26.7 µM | [9] > 100 µM | [10] > 100 µM | [11] 28.6 µM | [12] 85.1 µM | [13] > 100 µM | [14] 30.8 µM | [16] 35.4 µM | [17] 42.6 µM

Cc1ccc(S(=O)(=O)NC(=O)NCC(=O)NCC(=O)O)cc1
inactive: [1] > 100 µM | [18] > 100 µM | [2] > 100 µM | [3] > 100 µM | [5] > 100 µM | [6] > 100 µM | [7] > 100 µM | [8] > 100 µM | [9] > 100 µM | [10] > 100 µM | [11] > 100 µM | [12] > 100 µM | [14] > 100 µM | [15] > 100 µM | [16] > 100 µM | [17] > 100 µM

C[C@]12CC[C@@H]3c4cc(I)c(O)cc4CC[C@H]3[C@@H]1CC[C@@H]2O
inactive: [1] 8.63 µM | [18] 3.15 µM | [2] 18.5 µM | [3] 8.81 µM | [5] 10.3 µM | [6] 17.3 µM | [7] 4.09 µM | [8] 3.72 µM | [9] 12.7 µM | [10] 10.7 µM | [11] 7.74 µM | [12] 3.48 µM | [14] 3.1 µM | [15] 9.68 µM | [16] 4.48 µM | [17] 8.61 µM
